What was measured:
human ATR kinase = human ATR kinase (Homo sapiens (Human), UniProt Q13535); assay: In vitro evaluation of inhibitory activity on human ATR kinase (HTRF, ATR/ATRIP(h), GST-cMyc-p53 substrate); type: biochemical; conditions: 50 nM GST-cMyc-p53, 30 min room temperature
Experimental: IC50 values were determined to evaluate the inhibitory activity of the tested compounds on human ATR kinase.
ATR/ATRIP(h) was incubated in assay buffer containing 50 nM GST-cMyc-p53 and Mg/ATP (according to concentration required). The reaction was initiated by adding Mg/ATP mixture. After incubating for 30 min at room temperature, a stop solution containing EDTA to was added to terminate the reaction. Finally, detecting buffer containing d^2-labeled anti-GST monoclonal antibody and europium-labeled anti-phospho Ser15 antibody against phosphorylated p^53 were added. Then the plate was read in time-resolved fluorescence mode and homogeneous time resolution was performed.
The fluorescence (HTRF) signal was determined according to the formula HTRF=10000×(Em665 nm/Em620 nm).
IC50 data was analyzed using XLFit version 5.3 (ID Business Solutions). Non-linear regression analysis was used to fit the sigmoidal dose response (variable slope) curve.

tumor cell line LoVo = assay: In vitro cell viability test (CellTiter-Glo), LoVo cell proliferation inhibition; type: cell-based; conditions: Homo sapiens
Experimental: In this experiment, inhibitory effect of the compounds on cell proliferation was investigated by testing influence on cell viability in vitro in tumor cell line LoVo.
CellTiter-Glo Luminescence Cell Viability Test
The following protocols were performed according to instruction of PromegaCellTiter-Glo Luminescence cell viability test Kit (Promega-G7573). • (1) Thawing CellTiter-Glo buffer and allowing it to acclimate to room temperature. • (2) Allowing CellTiter-Glo substrate to acclimate to room temperature. • (3) Adding CellTiter-Glo buffer to a bottle of CellTiter-Glo substrate to dissolve the substrate to prepare CellTiter-Glo working solution. • (4) Vortexing slowly to full dissolution. • (5) Removing the cell culture plate and balancing it to room temperature for 30 min. • (6) Adding 50 μL (equivalent to half volume of cell culture medium in each well) of CellTiter-Glo working solution to each well, wrapping the cell plate with aluminum foil to protect from light. • (7) Shaking the culture plate on an orbital shaker for 2 min to induce cell lysis. • (8) Placing the culture plate at room temperature for 10 min to stabilize the luminescence signal. • (9) Detecting the luminescence signal on SpectraMax i3× of Molecular Devices plate reader. Data Analysis
The following formula was used to calculate the inhibition rate of the test compound (Inhibition rate, IR): IR(%)=(1−(RLU Compound−RLU Blank control)/(RLU Vehicle control−RLU Blank control))*100%.
The inhibition rates of different concentrations of compounds were calculated in Excel, and GraphPad Prism software was used to make the inhibition curve and calculate relevant parameters, including the minimum inhibition rate, the maximum inhibition rate and IC50.

[1] = Pharmacokinetic properties in vivo in female Balb/c Nude mice; set-up: species or system mouse; conditions: for AUC(0-t) / clearance / half-life / C0 / Vd / Cmax: mouse, plasma; for C0: drug concentration at 0 min; for Vd: read-out: Vdss; for F: oral bioavailability, 10 mg/kg oral vs 1 mg/kg IV
Experimental: Experimental method: The purpose of this study was to determine the pharmacokinetic parameters of the compounds and calculate the oral bioavailability in female Balb/c Nude mice.
The project involved 6 female Balb/c Nude mice. 3 mice were administered intravenously at a dose of 1 mg/kg, and plasma samples were collected at 0 h (before administration) and 0.0833, 0.25, 0.5, 1, 2, 4, 6, 8 and 24 h after administration, other 3 mice were given by oral gavage at a dose of 10 mg/kg or 25 mg/kg, and plasma samples were collected at 0 h (before dosing) and 0.5, 1, 2, 3, 4, 6, 8, 24 h after administration. Then LC/MS/MS analysis was performed for the collected samples and data was collected. The collected analysis data was calculated for relevant pharmacokinetic parameters with Phoenix WinNonlin 6.2.1 software.

[2] = test system: human colorectal cancer LoVo cell subcutaneous xenograft; assay: In vivo efficacy in colorectal cancer LoVo CDX model; set-up: species or system mouse; conditions: 25 mg/kg orally twice a day, day 17 of administration, vs vehicle control group
Excerpt: LoVo is a colorectal adenocarcinoma tumor cell line with MRE11A mutation (MRE11A is a key component of DNA double-strand break repairing ATM signaling pathway), which is sensitive to ATR inhibitor. In this experiment, the colorectal cancer LoVo CDX model was used to verify the inhibitory effect of ATR inhibitor as monotherapy on tumors with defect in ATM signaling pathway.
Human colorectal cancer LoVo cells (ECACC, CatLog: 87060101), in vitro monolayer culture, culture conditions: Ham's F-12 medium with 10% fetal bovine serum, 100 U/mL penicillin, 100 μg/mL streptomycin and 2 mM glutamine, 37° C., 5% CO2 culture. General passage with trypsin-EDTA digestion was performed twice a week. When the cell saturation was 80%-90%, the cells were collected, counted, and inoculated. 0.1 mL (10×10^6) of LoVo cells were subcutaneously inoculated into the right back of each nude mouse. When the mean tumor volume reached 173 mm^3, grouping and administration were initiated.
25.51 mg of WX15 was weighed and dissolved in 0.500 mL of DMSO, which were added with 2.000 mL of propylene glycol and 2.500 mL of deionized water, vortexed for homogeneous mixing, adjusted to PH=6.0, to obtain a clear solution. The preparing processes of Compound WX42, Compound WX45, Compound WX46 were referred to Compound WX15.
Dosage: All test compounds were administered orally at 25 mg/kg twice a day, with an interval of 8 h in a day.
A vernier caliper was used to measure the tumor diameter twice a week. The formula for calculating the tumor volume: V=0.5a×b^2, a and b represent the long and short diameters of the tumor, respectively. Antitumor efficacy of the compound was evaluated by TGI (%) or relative tumor proliferation rate T/C (%). Relative tumor proliferation rate T/C (%)=TRTV/CRTV×100% (TRTV: mean RTV value of treatment group; CRTV: mean RTV value of negative control group). The relative tumor volume (relative tumor volume, RTV) was calculated based on the tumor measurement results and the calculation formula was RTV=Vt/V0, where V0 is the tumor volume measured at grouping administration (i.e. D0), Vt is the tumor volume at a measurement, and data on the same day was used for TRTV and CRTV.
TGI (%) reflects the tumor growth inhibition rate. TGI (%)=[1−(mean tumor volume at the end of administration in a treatment group−mean tumor volume at the beginning of administration in this treatment group)/(mean tumor volume at the end of treatment in the solvent control group−mean tumor volume at the beginning of treatment in the solvent control group)]×100%.

Sequence of human ATR kinase (Q13535 whole entry): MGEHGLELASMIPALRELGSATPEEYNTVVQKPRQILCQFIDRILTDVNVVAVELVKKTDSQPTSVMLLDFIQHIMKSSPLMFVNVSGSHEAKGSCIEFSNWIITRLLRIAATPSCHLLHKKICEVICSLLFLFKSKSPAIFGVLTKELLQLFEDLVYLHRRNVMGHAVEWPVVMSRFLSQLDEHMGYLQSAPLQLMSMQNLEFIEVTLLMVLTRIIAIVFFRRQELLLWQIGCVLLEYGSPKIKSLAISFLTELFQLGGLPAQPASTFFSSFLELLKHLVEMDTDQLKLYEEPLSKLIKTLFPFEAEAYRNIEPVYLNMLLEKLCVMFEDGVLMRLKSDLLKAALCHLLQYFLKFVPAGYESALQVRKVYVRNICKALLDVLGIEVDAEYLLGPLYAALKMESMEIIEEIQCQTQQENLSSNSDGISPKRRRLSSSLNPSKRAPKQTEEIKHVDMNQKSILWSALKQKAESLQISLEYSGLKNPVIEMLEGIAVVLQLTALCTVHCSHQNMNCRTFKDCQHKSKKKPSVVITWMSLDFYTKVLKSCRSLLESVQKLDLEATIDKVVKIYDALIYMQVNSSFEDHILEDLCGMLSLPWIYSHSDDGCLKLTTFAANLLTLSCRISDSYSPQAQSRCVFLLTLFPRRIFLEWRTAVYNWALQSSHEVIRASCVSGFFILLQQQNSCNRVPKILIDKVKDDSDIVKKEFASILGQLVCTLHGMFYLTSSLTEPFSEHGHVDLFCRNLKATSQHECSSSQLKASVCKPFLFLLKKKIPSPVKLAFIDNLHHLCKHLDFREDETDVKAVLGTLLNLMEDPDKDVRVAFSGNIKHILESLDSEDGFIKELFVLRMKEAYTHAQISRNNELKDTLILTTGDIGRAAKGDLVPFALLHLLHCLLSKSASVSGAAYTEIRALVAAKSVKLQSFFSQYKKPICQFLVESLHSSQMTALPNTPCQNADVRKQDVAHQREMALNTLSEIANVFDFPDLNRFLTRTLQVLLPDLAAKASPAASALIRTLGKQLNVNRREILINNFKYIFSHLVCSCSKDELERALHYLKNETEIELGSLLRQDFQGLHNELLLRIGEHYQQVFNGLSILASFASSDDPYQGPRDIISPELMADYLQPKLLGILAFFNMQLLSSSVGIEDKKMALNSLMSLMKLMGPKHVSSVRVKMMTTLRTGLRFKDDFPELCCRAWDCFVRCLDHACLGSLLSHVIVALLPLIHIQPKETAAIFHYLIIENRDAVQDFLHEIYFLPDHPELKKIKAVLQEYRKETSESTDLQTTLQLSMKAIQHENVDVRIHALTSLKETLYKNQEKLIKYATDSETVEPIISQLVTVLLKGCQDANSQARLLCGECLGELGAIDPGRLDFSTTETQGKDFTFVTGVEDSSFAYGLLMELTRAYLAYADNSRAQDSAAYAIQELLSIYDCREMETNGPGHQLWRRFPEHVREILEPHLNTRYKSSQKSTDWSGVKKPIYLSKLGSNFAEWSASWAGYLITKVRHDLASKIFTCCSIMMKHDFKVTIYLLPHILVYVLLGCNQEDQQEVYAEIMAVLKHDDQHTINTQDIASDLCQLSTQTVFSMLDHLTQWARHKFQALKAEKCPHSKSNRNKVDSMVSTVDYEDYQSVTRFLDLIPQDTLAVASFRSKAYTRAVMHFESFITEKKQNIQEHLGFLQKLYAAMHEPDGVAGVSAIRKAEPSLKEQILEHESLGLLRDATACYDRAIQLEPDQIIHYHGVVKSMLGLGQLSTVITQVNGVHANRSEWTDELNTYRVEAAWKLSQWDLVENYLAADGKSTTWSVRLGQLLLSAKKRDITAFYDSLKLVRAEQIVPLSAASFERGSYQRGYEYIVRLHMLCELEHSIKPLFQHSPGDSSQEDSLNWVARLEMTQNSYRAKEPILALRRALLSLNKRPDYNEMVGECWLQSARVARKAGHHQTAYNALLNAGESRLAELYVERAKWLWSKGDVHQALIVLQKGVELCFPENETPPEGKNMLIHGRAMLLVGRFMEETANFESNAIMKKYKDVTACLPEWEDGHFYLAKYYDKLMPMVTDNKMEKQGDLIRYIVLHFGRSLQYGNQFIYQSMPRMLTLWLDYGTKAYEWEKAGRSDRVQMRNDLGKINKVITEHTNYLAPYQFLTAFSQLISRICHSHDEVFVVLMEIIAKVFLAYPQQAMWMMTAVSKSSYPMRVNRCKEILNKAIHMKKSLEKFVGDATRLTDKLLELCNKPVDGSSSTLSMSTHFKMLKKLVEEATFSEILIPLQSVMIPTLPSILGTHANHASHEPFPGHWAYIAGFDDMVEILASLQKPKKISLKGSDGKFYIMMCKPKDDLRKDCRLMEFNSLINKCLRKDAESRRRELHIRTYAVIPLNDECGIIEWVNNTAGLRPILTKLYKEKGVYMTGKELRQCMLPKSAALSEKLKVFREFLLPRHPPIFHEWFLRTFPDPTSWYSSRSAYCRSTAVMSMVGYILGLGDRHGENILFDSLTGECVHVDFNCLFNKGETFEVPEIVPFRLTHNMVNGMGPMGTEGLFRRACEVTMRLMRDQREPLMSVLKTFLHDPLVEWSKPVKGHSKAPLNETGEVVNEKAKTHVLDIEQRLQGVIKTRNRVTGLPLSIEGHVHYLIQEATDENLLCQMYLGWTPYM
Sequence of human ATR kinase (Q8WXE1 whole entry partner): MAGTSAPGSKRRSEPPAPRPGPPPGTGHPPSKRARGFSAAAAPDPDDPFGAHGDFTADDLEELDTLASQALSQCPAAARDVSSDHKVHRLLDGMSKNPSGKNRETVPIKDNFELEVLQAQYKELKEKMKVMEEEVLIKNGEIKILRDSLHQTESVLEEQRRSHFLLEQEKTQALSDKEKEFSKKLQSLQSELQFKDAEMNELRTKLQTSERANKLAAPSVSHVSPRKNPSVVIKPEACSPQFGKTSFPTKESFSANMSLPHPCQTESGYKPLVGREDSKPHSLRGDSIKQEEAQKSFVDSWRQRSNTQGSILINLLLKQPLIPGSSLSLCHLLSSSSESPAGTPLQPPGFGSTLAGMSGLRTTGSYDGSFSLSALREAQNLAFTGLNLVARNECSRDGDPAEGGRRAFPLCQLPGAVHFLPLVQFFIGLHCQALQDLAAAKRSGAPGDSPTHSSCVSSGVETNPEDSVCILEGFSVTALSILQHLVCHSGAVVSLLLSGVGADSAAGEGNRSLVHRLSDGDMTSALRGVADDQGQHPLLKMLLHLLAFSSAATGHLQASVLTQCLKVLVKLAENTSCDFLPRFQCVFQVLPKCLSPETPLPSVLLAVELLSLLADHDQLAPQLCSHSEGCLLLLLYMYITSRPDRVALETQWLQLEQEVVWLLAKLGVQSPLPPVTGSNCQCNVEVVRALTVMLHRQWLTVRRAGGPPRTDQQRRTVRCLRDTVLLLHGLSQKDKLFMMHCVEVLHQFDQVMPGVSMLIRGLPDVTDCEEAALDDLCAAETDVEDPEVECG

IC50 (human ATR kinase) [nM] | IC50 (tumor cell line LoVo) [nM] | AUC(0-t) ([1]; 1 mg/kg IV) [µM·h] | clearance ([1]; 1 mg/kg IV) [mL/min/kg] | half-life ([1]; 1 mg/kg IV) [h] | C0 ([1]; 1 mg/kg IV) [µM] | Vd ([1]; 1 mg/kg IV) [L/kg] | AUC(0-t) ([1]; 10 mg/kg oral gavage) [µM·h] | Cmax ([1]; 10 mg/kg oral gavage) [µM] | half-life ([1]; 10 mg/kg oral gavage) [h] | F [1] [%] | AUC(0-t) ([1]; 25 mg/kg oral gavage) [µM·h] | Cmax ([1]; 25 mg/kg oral gavage) [µM] | half-life ([1]; 25 mg/kg oral gavage) [h] | SMILES | T/C (relative tumor proliferation rate) [2] [%] | TGI (tumor growth inhibition rate) [2] [%]
159 | 410 | 0.905 | 47 | 0.78 | 1.96 | 2.21 | 8.75 | 4.56 | 1.23 | 96.0 |  |  |  | C[C@@H]1COCCN1c1cc(-c2ccnn2C)nc(-c2ccnc3[nH]ccc23)n1 [WX15] | 46.7 | 66.8
29 | 510 | 1.09 | 34.3 | 2.57 | 1.96 | 2.21 | 15 | 6.5 | 2.02 | 129.0 |  |  |  | Cc1cnn(C)c1-c1cc(N2CCOC[C@H]2C)nc(-c2cc(CO)cc3[nH]ccc23)n1 [WX42] | 27.8 | 90.7
69 | 750 | 0.88 | 48.3 | 0.99 | 1.58 | 2.59 | 10.9 | 7.72 | 1.69 | 123.0 |  |  |  | Cc1nnc(C)n1-c1cc(N2CCOC[C@H]2C)nc(-c2cccc3[nH]ccc23)n1 [WX45] | 32.3 | 79.9
31 | 350 |  |  |  |  |  |  |  |  |  | 26.2 | 10.6 | 0.892 | Cc1nnc(C)n1-c1cc(N2CCOC[C@H]2C)nc(-c2cc(F)cc3[nH]ccc23)n1 [WX46] | 43.8 | 79.9

From patent US11434232B2, “ATR inhibitor and application thereof” (WUXI BIOCITY BIOPHARMACEUTICS CO., LTD., priority 2018, dated 2022)
